Laboratory results as given in patent publication US20060122181A1, “Heteroaromatic pentacyclic compound and medicinal use thereof” (Japan Tobacco Inc., priority 2003, published 2006).

| SMILES | melting point |
| --- | --- |
| CCCC(CCC)c1ccc(NC(=O)c2ccc(-c3csc(CN(CC(=O)O)Cc4ccccc4)n3)cc2)cc1 [Example 1-54] | 201 to 202 °C |
| CCC(CC)c1ccc(N(Cc2ccc(-c3csc(CN(C)c4ccc(OCC(=O)O)c(C(=O)O)c4)n3)cc2)C(C)C)cc1 [Example 1-124] | 124 °C |
| CCCC(CCC)c1ccc(OCc2ccc(-c3csc(COc4cccnc4C(=O)O)n3)cc2)cc1 [Example 1-82] | 138.5 °C (dec.) |
| CN(Cc1ccc(C(=O)O)cc1)c1nc(-c2ccc(CNc3ccc(C4CCCCC4)cc3)cc2)cs1 [Example 1-17] | 206 to 210 °C |
| CCCC(CCC)c1ccc(N(Cc2ccc(-c3csc(COc4cc(C(=O)O)ccc4NC(=O)CNC)n3)cc2)C(C)C)cc1 [Example 1-126] | 210 to 212 °C |
| CCCC(CCC)c1ccc(Cn2c(-c3csc(CN4CCN(c5cccc(C(=O)O)c5)CC4)n3)nc3ccccc32)cc1 [Example 1-170] | 179.8 to 181.2 °C |
| CCCC(CCC)N(Cc1ccc(-c2csc(COc3ccc(C(=O)O)cn3)n2)cc1)c1ccc(C(C)C)cc1 [Example 1-6] | 141 to 143 °C |
| CCC(CC)c1ccc(N(Cc2ccc(-c3csc(CN4CCN(c5ccc(C(=O)O)cc5)CC4)n3)cc2)C(C)C)cc1 [Example 1-154] | 232 to 234 °C |
| CCCC(CCC)c1ccc(OCc2ccc(-c3csc(CN(CC(=O)O)C(=O)COc4ccccc4)n3)cc2)cc1 [Example 1-129] | 143 to 145 °C |
| CC(C)CN(Cc1ccc(-c2csc(COc3cncc(C(=O)O)c3)n2)cc1)c1ccc(C(C)C)cc1 [Example 1-8] | 196 to 197 °C |
| CCC(C)(C)c1ccc(OCc2ccc(-c3csc(N(C)Cc4ccc(C(=O)O)cc4)n3)cc2)cc1 [Example 1-38] | 155 to 157 °C |
| CCC(CC)c1ccc(N(Cc2ccc(-c3csc(CNc4cccc(C(=O)O)c4)n3)cc2)C(C)C)cc1 [Example 1-92] | 159 to 160 °C |
| CCC(CC)c1ccc(N(Cc2ccc(-c3csc(COc4cc(C(=O)O)ccc4[N+](=O)[O-])n3)cc2)C(C)C)cc1 [Example 1-93] | 198 to 200 °C |
| CC(C)CN(Cc1ccc(-c2csc(CN(CC(=O)O)Cc3ccccc3)n2)cc1)c1ccc(Cl)cc1 [Example 1-24] | 152 °C |
| CCCC(CCC)c1ccc(OCc2ccc(-c3csc(CN(CC(=O)O)CC(=O)N(c4ccccc4)C(C)C)n3)cc2)cc1 [Example 1-99] | 115.5 °C |
| Cc1ccc(OCc2ccc(-c3csc(CN(CC(=O)O)Cc4ccccc4)n3)cc2)c(C(C)(C)C)c1 [Example 1-43] | 146 °C |
| CCC(CC)c1ccc(N(Cc2ccc(-c3csc(COc4cc(OC)cc(C(=O)O)c4)n3)cc2)C(C)C)cc1 [Example 1-63] | 131 °C |

| SMILES | melting point |
| --- | --- |
| CCCC(CC)c1ccc(N(Cc2ccc(-c3csc(CN4CCC(C(=O)O)CC4)n3)cc2)C(C)C)cc1 (stereo not shown) [Example 1-152] | 149 to 151 °C |
| CCC(CC)c1ccc(N(Cc2ccc(-c3csc(COc4ccc(C(=O)O)cn4)n3)cc2)C(C)C)cc1 [Example 1-3] | 177 to 181 °C |
| CCCC(CCC)c1ccc(OCc2ccc(-c3csc(CN(C)c4ccc(OCC(=O)O)c(C(=O)O)c4)n3)cc2)cc1 [Example 1-125] | 122 °C |
| CCCC(CCC)c1ccc(OCc2ccc(-c3csc(CN(CC(=O)O)CC(=O)Nc4ccccc4)n3)cc2)cc1 [Example 1-95] | 149.5 °C |
| CCCC(CCC)c1ccc(Cn2c(-c3ccccc3)c(-c3csc(CN4CCC(C(=O)O)CC4)n3)c3ccccc32)cc1 [Example 1-183] | 101 to 103 °C |
| O=C(O)c1cccc(C2CCN(Cc3nc(-c4ccc(OCc5ccc(Cl)c(Cl)c5)cc4)cs3)CC2)c1 [Example 1-173] | 197 to 199 °C |
| Cc1ccc(COc2ccc(-c3csc(CN4CCC(c5cccc(C(=O)O)c5)CC4)n3)cc2)cc1[N+](=O)[O-] [Example 1-184] | 205 to 210 °C |
| CCCC(CCC)c1ccc(OCc2ccc(-c3csc(CN(CC(=O)O)C(=O)COc4ccc(C(C)C)cc4)n3)cc2)cc1 [Example 1-135] | 192 to 194 °C |
| CCCC(CCC)c1ccc(N(Cc2ccc(-c3csc(CN(CC(=O)O)C(=O)COCc4ccccc4)n3)cc2)C(C)C)cc1 [Example 1-134] | 158 to 160 °C |
| CCCC(CCC)c1ccc(N(C)Cc2ccc(-c3csc(COc4cncc(C(=O)O)c4)n3)cc2)cc1 [Example 1-4] | 135 to 138 °C |
| CCCC(CCC)c1ccc(N(Cc2ccc(-c3csc(COc4cc(C(=O)O)ccc4NC(C)=O)n3)cc2)C(C)C)cc1 [Example 1-108] | 129 to 131 °C |
| CCCC(CCC)c1ccc(OCc2ccc(-c3csc(CN(CC(=O)O)CC(=O)Nc4cccnc4)n3)cc2)cc1 [Example 1-96] | 162.5 °C |
| CCC(CC)c1ccc(N(Cc2ccc(-c3csc(COc4cncc(C(=O)OC)c4)n3)cc2)C(C)C)cc1 [Example 1-89] | 111 to 113 °C |
| CN(c1ccc(C(=O)O)cc1)c1nc(-c2ccc(C(=O)Nc3ccc(C4CCCCC4)cc3)cc2)cs1 [Example 1-52] | 250 °C (dec.) |
| CCCC(CCC)c1ccc(N(C)Cc2ccc(-c3csc(CN(C)S(=O)(=O)CCCC(=O)[O-])n3)cc2)cc1.[Na+] [Example 1-16] | 217 to 220 °C |
| CCCC(CCC)c1ccc(CN(CC)C(=O)c2ccc(-c3csc(CN(CC(=O)O)Cc4ccccc4)n3)cc2)cc1 [Example 1-57] | 59 to 65 °C |

Further lines, results first:

| melting point | SMILES |
| --- | --- |
| 186 to 188 °C | CN(Cc1ccccc1)c1ccc(-c2csc(CN(CC(=O)O)C(=O)Cc3csc4ccccc34)n2)cc1 [Example 3-56] |
| 156 to 157 °C | CCC(CC)c1ccc(COc2ccc(-c3csc(CN(CC(=O)O)Cc4ccccn4)n3)cc2)cc1 [Example 3-20] |
| 175 to 177 °C | CCCC(CCC)c1ccc(CN(C)c2ccc(-c3csc(COc4ccc(C(=O)O)cc4)n3)cc2)cc1 [Example 3-95] |
| 147 to 150 °C | CCCC(CCC)c1ccc(OCc2ccc(-c3ccc(C(=O)N(CC(=O)O)Cc4ccccn4)s3)cc2)cc1 [Example 4-46] |
| 183 to 188 °C | CCCC(CCC)c1ccc(CN(C)c2ccc(-c3csc(CN(CC(=O)[O-])C(=O)c4ccc(C(C)C)cc4)n3)cc2)cc1.[Na+] [Example 3-63] |
| 160 to 161 °C | CN(Cc1ccc(CC(C)(C)C)cc1)c1ccc(-c2csc(CN(C)C(Cc3ccccc3)C(=O)O)n2)cc1 (stereo not shown) [Example 3-89] |
| 199 to 204 °C | CC(C)Cc1ccc(CN(C)c2ccc(-c3csc(CNC(Cc4ccc(Cl)cc4)C(=O)O)n3)cc2)cc1 (stereo not shown) [Example 3-79] |
| 204 to 207 °C | CCCC(CCC)c1ccc(COc2ccc(-c3csc(COc4ccc(C(=O)O)cc4)n3)cc2)cc1 [Example 3-2] |
| 136 to 138 °C | CCC(CC)c1ccc(COc2ccc(-c3csc(CN(CC(=O)O)Cc4ccc(C(F)(F)F)cc4)n3)cc2)cc1 [Example 3-16] |
| 156 °C | CCCC(CCC)c1ccc(N(Cc2ccc(-c3csc(COc4cncc(C(=O)O)c4)c3)cc2)C(C)C)cc1 [Example 4-3] |
| 149 to 150 °C | CN(Cc1nc(-c2ccc(N(C)Cc3ccc(C4CCCCC4)cc3)cc2)cs1)C(=O)NCC(=O)O [Example 3-109] |
| 144 to 146 °C | CCC(CC)c1ccc(COc2ccc(-c3csc(CN(CC(=O)O)Cc4ccccc4)n3)cc2)cc1 [Example 3-11] |
| 241 to 243 °C | CCCC(CCC)c1ccc(COc2ccc(-c3csc(CN4CCN(c5ccc(C(=O)O)cc5)CC4)n3)cc2)cc1 [Example 3-127] |
| 117 to 118 °C | CCCC(CCC)c1ccc(COc2ccc(-c3csc(CSc4ccc(C(=O)O)cc4)n3)cc2)cc1 [Example 3-3] |
| 114 to 117 °C | CCCC(CCC)c1ccc(CN(C)c2ccc(-c3csc(CN(CC(=O)O)C(=O)c4ccc(C)cc4)n3)cc2)cc1 [Example 3-62] |
| 155 to 156 °C | CCCC(CCC)c1ccc(COc2ccc(-c3csc(CN(CC(=O)O)Cc4ccccn4)n3)cc2)cc1 [Example 3-19] |

| melting point | SMILES |
| --- | --- |
| 152 °C | CCC(CC)c1ccc(N(Cc2ccc(-c3ccc(CN4Cc5ccccc5C[C@H]4C(=O)O)s3)cc2)C(C)C)cc1 [Example 4-28] |
| 192 to 195 °C | CN(C[C@H]1CC[C@H](c2ccc(C(C)(C)C)cc2)CC1)c1ccc(-c2csc(CN(CC(=O)O)Cc3ccccc3)n2)cc1 [Example 3-28] |
| 148 to 150 °C | CCCC(CCC)c1ccc(COc2ccc(-c3csc(COc4cncc(C(=O)O)c4)n3)c(C)c2)cc1 [Example 3-114] |
| 190 to 191 °C | CN(Cc1ccc(C2CCCCC2)cc1)c1ccc(-c2csc(CN3CCN(CC(=O)O)CC3)n2)cc1 [Example 3-111] |
| 140 to 142 °C | CN(Cc1ccccc1)c1ccc(-c2csc(CN(CC(=O)O)Cc3ccc(Cl)cc3)n2)cc1 [Example 3-49] |
| 202.8 to 206.4 °C | CCCC(CCC)c1ccc(OCc2ccc(-c3ccc(CN(CC(=O)O)Cc4cccc(C(=O)O)c4)s3)cc2)cc1 [Example 4-76] |
| 160 °C | CCC(CC)c1ccc(N(Cc2ccc(-c3csc(COc4cncc(C(=O)O)c4)c3)cc2)C(C)C)cc1 [Example 4-4] |
| 93 to 98 °C | CCCC(CCC)c1ccc(N(Cc2ccc(-c3ccc(COc4cncc(C(=O)O)c4)s3)cc2)C(C)C)cc1 [Example 4-18] |
| 254 to 255 °C | CCCC(CCC)c1ccc(COc2ccc(-c3csc(CN4Cc5ccccc5C[C@H]4C(=O)[O-])n3)cc2)cc1.[Na+] [Example 3-112] |
| 135 to 138 °C | CC(NCc1nc(-c2ccc(N(C)Cc3ccc(C4CCCCC4)cc3)cc2)cs1)C(=O)O (stereo not shown) [Example 3-78] |
| 98 to 103 °C | CCCC(CCC)c1ccc(COc2ccc(-c3csc(CN(CC(=O)O)Cc4csc(C)n4)n3)c(C)c2)cc1 [Example 3-122] |
| 138 to 139 °C | CCC(CC)c1ccc2nc(-c3csc(COc4ccc(C(=O)O)cc4)n3)n(Cc3ccc(C(C)=O)cc3)c2c1 [Example 3-131] |
| 92 to 98 °C | CCC(CC)c1ccc(N(Cc2ccc(-c3ccc(CN(CC(=O)O)Cc4nc(C(C)(C)C)cs4)s3)cc2)C(C)C)cc1 [Example 4-19] |
| 202.3 to 204.2 °C | O=C(O)CN(Cc1ccccc1)Cc1cc(-c2ccc(COc3cc(Cl)cc(Cl)c3)cc2)cs1 [Example 4-105] |
| 202 to 203 °C | CN(Cc1ccc(C2CCCCC2)cc1)c1ccc(-c2csc(CNS(=O)(=O)c3ccc(C(=O)O)cc3)n2)cc1 [Example 3-97] |
